Measured values: patent publication US9650365B2 (UNIVERSITY OF CONNECTICUT, priority 2014, dated 2017)
Like-named read-outs stand apart in the source and are kept apart here.

Legend:
[1] = BBB-PAMPA; format: in vitro ADME; settings: preliminary studies, read-out: apparent permeability (Papp)
From the text: (§1) Each analogue will also be evaluated in assays to develop SPR for the ability of the scaffold to penetrate the BBB and accumulate in the brain. First, a standard BBB-PAMPA assay will be used to predict the ability to passively diffuse across the BBB. In this method, an artificial membrane that has been designed to mimic the BBB is immobilized on a filter between a donor and acceptor compartment. […] For these assays, Madin Darby canine kidney cells (MDCK) are transfected with either P-gp or BCRP and grown to confluence on filter inserts in a transwell apparatus analogous to that used for the PAMPA assay. Analogue (10 μM) is added to either the donor or acceptor compartment and following a 60 min incubation period, compound concentrations in both compartments are quantified via LC/MS/MS. […] The fluorescent dye lucifer yellow will be utilized to ensure membrane integrity in the transporter assays. The BBB-PAMPA assay and both transporter assays will be performed in collaboration with the Sanford-Burnham Exploratory Pharmacology Core Facility.

[2] = target: T1, BCRP (Homo sapiens, UniProt Q9UNQ0); experiment: BCRP transporter substrate assay; format: in vitro ADME
T1 construct: expressed in transfected cells; host or cells: Madin Darby canine kidney cells (MDCK)
T1 sequence (Q9UNQ0 1-655): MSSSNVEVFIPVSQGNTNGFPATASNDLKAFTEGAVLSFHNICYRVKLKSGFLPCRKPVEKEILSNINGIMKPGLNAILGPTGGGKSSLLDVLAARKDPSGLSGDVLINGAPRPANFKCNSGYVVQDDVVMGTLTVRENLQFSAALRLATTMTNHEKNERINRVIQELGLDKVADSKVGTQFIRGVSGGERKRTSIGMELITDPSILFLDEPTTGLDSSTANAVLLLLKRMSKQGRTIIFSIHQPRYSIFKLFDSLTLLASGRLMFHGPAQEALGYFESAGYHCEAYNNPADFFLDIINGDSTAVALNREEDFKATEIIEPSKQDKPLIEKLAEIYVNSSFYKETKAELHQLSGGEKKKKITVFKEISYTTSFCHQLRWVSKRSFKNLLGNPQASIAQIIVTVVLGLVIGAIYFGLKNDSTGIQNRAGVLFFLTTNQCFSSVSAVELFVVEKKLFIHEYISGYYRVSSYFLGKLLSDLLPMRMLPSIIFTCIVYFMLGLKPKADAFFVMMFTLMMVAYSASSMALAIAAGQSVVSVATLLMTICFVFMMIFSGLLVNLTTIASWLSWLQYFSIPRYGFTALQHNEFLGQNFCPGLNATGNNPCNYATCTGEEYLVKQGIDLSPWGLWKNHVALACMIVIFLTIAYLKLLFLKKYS
From the text: as §1

[3] = target: T2, P-gp (Homo sapiens, UniProt P08183); experiment: P-gp transporter substrate assay; format: in vitro ADME
T2 construct: expressed in transfected cells; host or cells: Madin Darby canine kidney cells (MDCK)
T2 sequence (P08183 whole entry): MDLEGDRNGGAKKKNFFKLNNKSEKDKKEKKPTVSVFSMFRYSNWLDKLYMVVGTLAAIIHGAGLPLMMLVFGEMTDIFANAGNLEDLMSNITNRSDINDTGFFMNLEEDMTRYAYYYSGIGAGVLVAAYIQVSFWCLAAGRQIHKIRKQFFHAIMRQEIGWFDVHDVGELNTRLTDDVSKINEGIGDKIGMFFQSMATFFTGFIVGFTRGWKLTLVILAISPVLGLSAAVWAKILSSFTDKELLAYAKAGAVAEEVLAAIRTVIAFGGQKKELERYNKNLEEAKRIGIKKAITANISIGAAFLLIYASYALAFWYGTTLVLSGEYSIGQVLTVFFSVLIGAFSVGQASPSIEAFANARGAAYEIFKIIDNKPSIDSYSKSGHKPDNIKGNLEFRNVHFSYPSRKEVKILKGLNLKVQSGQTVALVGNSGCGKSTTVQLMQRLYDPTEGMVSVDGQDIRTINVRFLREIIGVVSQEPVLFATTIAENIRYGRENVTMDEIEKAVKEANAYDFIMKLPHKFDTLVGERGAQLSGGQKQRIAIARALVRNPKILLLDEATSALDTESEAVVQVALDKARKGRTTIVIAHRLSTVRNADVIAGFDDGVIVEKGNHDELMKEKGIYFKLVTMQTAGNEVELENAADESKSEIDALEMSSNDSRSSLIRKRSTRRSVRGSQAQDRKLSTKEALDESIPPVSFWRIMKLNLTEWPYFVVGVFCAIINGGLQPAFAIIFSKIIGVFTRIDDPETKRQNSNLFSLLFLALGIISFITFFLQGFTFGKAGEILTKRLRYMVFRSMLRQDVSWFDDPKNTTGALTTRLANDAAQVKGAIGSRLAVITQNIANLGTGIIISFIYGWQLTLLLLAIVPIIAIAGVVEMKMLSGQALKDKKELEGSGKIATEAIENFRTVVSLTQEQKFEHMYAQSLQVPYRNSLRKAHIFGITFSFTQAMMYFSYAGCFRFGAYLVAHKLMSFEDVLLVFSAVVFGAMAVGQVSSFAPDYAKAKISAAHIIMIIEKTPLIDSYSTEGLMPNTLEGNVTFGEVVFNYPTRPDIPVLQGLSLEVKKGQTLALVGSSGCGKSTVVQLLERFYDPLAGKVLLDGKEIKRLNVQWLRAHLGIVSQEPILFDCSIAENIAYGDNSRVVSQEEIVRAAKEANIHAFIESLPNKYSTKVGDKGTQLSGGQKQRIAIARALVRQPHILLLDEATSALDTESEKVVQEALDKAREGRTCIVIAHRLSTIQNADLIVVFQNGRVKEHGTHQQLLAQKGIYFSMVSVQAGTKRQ
From the text: as §1

[4] = system: HUVEC; experiment: HUVEC proliferation (MTS); format: cell-based, human; settings: Homo sapiens, HUVEC, 72 h, read-out: GI50 (μM) HUVEC, 72 h
In short: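 HUVECs seeded at 3,000 cells/well, attached overnight, then treated with varying drug concentrations. Proliferation read by MTS/PMS after 72 h.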

[5] = system: Hh signaling (Gli1 mRNA) in ASZ cells; experiment: Down-regulation of endogenous Gli1 mRNA in ASZ cells; format: cell-based, murine; settings: Mus musculus
In short: (§2)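 Hh pathway activated in C3H10T1/2 cells with exogenous agonist (recombinant Hh ligand or small molecule) alongside inhibitor; Gli1 mRNA measured by qPCR. Concentration-dependent Gli1 reduction also assessed in murine BCC ASZ cells; values mean±SEM, ≥2 experiments in triplicate.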

[6] = system: Gli1 in DAOYs (cultured MB); experiment: Down-regulation of Gli1 in DAOY cells; format: cell-based; settings: Homo sapiens
From the text: Additional analogues have been synthesized and characterized in the assays described above.

[7] = system: Hh signaling (Gli1 mRNA) in C3H10T1/2 cells; experiment: Down-regulation of endogenous Gli1 mRNA in Hh-dependent C3H10T1/2 cells; format: cell-based, mouse; settings: Mus musculus
In short: as §2

CC[C@@H]([C@H](C)O)n1ncn(-c2ccc(N3CCN(c4ccc(OC[C@@H]5CO[C@@](Cn6cncn6)(c6ccc(F)cc6F)C5)cc4)CC3)cc2)c1=O [PSZ, posaconazole, reference compound]
Papp at 30 min, 10 μM [1]: 46 ×10⁻⁶ cm/s | substrate of BCRP [2]: not a substrate | substrate of P-gp [3]: not a substrate | GI50 [4]: 1.6 ± 0.02 µM | IC50 ([5]; 48 h, read-out: IC50 (μM) ASZ, 48 hr incubation): 0.54 ± 0.05 µM | IC50 ([5]; read-out: IC50 (μM) Gli1-ASZs): 0.54 ± 0.05 µM | IC50 [6]: 0.89 ± 0.1 µM | IC50 ([7]; C3H 10T1/2, 24 h, read-out: IC50 (μM) C3H10T1/2, 24 hr incubation): 0.14 ± 0.02 µM | inhibition at 1 µM ([7]; C3H 10T1/2, read-out: % Hh inhibition): 95% | IC50 ([7]; C3H 10T1/2, read-out: IC50 (μM) Gli1-C3Hs): 0.01 ± 0.005 µM | IC50 ([7]; C3H 10T1/2, read-out: IC50 down-regulation of Gli1, C3H10T1/2 cells): 0.01 µM
